# Measurements reported in patent US8673914B2, “Use of phosphodiesterase inhibitors for treating multidrug resistance” (St. John's University, priority 2011, dated 2014).
# Marks after values point to notes of the source that are not given here.
# Key:
# [1] = test system: MRP7 localization in HEK/MRP7 cells; assay: Immunofluorescence of MRP7; format: cell-based; details: 5 μM; 72 h
# Protocol: HEK/MRP7 cells (1×10^4) were seeded in 24 well plates and cultured overnight. […] Cells were washed with PBS and fixed with 4% paraformaldehyde for 15 min at room temperature and then rinsed with PBS three times. Nonspecific reaction was blocked with 1% BSA for 1 h at room temperature. A polyclonal antibody D19 against MRP7 (1:200) was added and incubated overnight. […] DAPI was used for nuclear staining. Immunofluorescent images were taken with an inverted microscope (model IX70; Olympus, Center Valley, Pa.) with IX-FLA fluorescence and CCD camera.
# KB-C2 cells (ABCB1) = assay: [^3H]-paclitaxel efflux (Example 1); format: cell-based, human; details: 1 h
# Protocol: The intracellular accumulation of [^3H]-paclitaxel was measured as follows. […] Intracellular paclitaxel accumulation was measured by incubating cells with 0.1 μM [^3H]-paclitaxel for 2 h in the presence or absence of the reversal agents at 37° C. The cells were washed three times with ice-cold PBS, then suspended in fresh medium with or without reversal agents at 37° C. Aliquots of the extracellular medium (40 μl) were collected at various time points (0, 60, 120 min), and finally the cells were collected and lysed in 10 mM lysis buffer (pH 7.4, containing 1% Triton X-100 and 0.2% SDS). Each sample was placed in scintillation fluid and the radioactivity was measured in a Packard TRI-CARB1 1900CA liquid scintillation analyzer from Packard Instrument Company, Inc. (Downers Grove, Ill.).
# KB-3-1 cells [2] = assay: [^3H]-paclitaxel efflux (Example 1); format: cell-based, human; details: absence or presence of vardenafil
# Protocol: (§1) The cells were washed three times with ice-cold PBS, then suspended in fresh medium with or without reversal agents at 37° C. […] Each sample was placed in scintillation fluid and the radioactivity was measured in a Packard TRI-CARB1 1900CA liquid scintillation analyzer from Packard Instrument Company, Inc. (Downers Grove, Ill.).
# KB-3-1 cells [3] = assay: [^3H]-paclitaxel accumulation (Example 1); format: cell-based, human; details: 10 μM
# Protocol: as §1
# KB-3-1 = assay: MTT cytotoxicity/reversal assay (Example 2); format: cell-based, human; details: alone
# Protocol: (§2) The ABCB1-overexpressing drug resistant cell line KB-V1 (generously provided by Dr. Gottesman, NCI, NIH) was established by a stepwise concentration increase of vinblastine in the culture medium of KB-3-1 cells and subsequently culturing these cells in medium with 1 μg/mL of vinblastine. An ABCC1-overexpressing MDR cell line, KB-CV60, was also derived from KB-3-1 cells and was maintained in medium with 1 μg/mL of cepharanthine and 60 ng/mL of vincristine. Both KB-C2 and KB-CV60 cell lines were kindly provided by Dr. Akiyama (Kagoshima University, Japan). HEK293/pcDNA3.1, ABCG2-482-R5, ABCG2-482-G2, and ABCG2-482-T7 cells were established by selection with 2 mg/mL G418 after transfecting HEK293 with either (1) empty pcDNA3.1 vector or (2) pcDNA3.1 vector containing full length ABCG2 coding either (2a) wild-type arginine (R) or mutant (2b) glycine (G) or (2c) threonine (T) at amino acid position 482, respectively. The wild-type ABCG2-overexpressing drug-resistant cell line MCF-7/Flv1000 was cultured in the medium with 1 μM of flavopiridol. […] Another G482 mutant ABCG2-overexpressing drug resistant cell line, S1-M1-80, was maintained in the medium with 80 μM of mitoxantrone. […] All the cell lines were grown as adherent monolayers in flasks with DMEM (Dulbecco's modified Eagle's medium) culture medium (Hyclone Co.) containing 10% bovine serum at 37° C. in a humidified atmosphere of 5% CO2.
# (§3) Cells in 96-well plates were preincubated with or without the reversal agents for 1 h and then different concentrations of chemotherapeutic drugs were added into designated wells. After 68 h of incubation, MTT solution (4 mg/mL) was added to each well, and the plate was further incubated for 4 h, allowing viable cells to change the yellow-colored MTT into dark-blue formazan crystals. Subsequently the medium was discarded, and […] of DMSO was added into each well to dissolve the formazan crystals. The absorbance was determined at 570 nm by an OPSYS MR Microplate Reader from DYNEX Technologies, Inc.
# KB-C2 = assay: MTT cytotoxicity/reversal assay (Example 2); format: cell-based, human; details: alone
# Protocol: as §2, §3
# KB-V1 = assay: MTT cytotoxicity/reversal assay (Example 2); format: cell-based, human; details: alone
# Protocol: as §2, §3
# [4] = MTT cytotoxicity assay (Example 4); format: cell-based; details: human; HEK/MRP7; alone; read-out: IC50 of paclitaxel
# Protocol: The MRP7 cDNA was generously provided by Dr. Gary Kruh (University of Illinois, Chicago, Ill.) and inserted into the pcDNA3.1 expression vector. […] Individual colonies were selected in medium containing G418 (1 mg/ml) and cultured for further analysis.
# MTT colorimetric assay was performed to analyze the drug sensitivity as previously described (Shi et al. (2007) Cancer Res. 67:11012-20). HEK293-pcDNA3.1 and HEK/MRP7 cells were seeded into 96-well plates in triplicate at 6000 cells/well.
# After drug incubation of 68 h, 20 μl MTT solution (4 mg/ml) was added into each well. […] The Bliss method was used to calculate the IC50 values according to survival curves.
SMILES,MRP7 protein localization in plasma membranes [1],accumulated paclitaxel retained inside cells (KB-C2 cells (ABCB1); 10 μM),change in effluxed paclitaxel (KB-3-1 cells [2]),effect on paclitaxel accumulation (KB-3-1 cells [3]),"fold-resistance, paclitaxel (KB-3-1)","fold-resistance, paclitaxel (KB-C2)","fold-resistance, paclitaxel (KB-V1)",accumulated paclitaxel effluxed (KB-C2 cells (ABCB1); absence of vardenafil),IC50 at 68 h [4]
"CN1CC(=O)N2[C@H](c3ccc4c(c3)OCO4)c3[nH]c4ccccc4c3C[C@@H]2C1=O [Tadalafil, tadalafil]",no alteration of MRP7 protein localization,,,,,,,,
"CCCc1nc(C)c2c(=O)[nH]c(-c3cc(S(=O)(=O)N4CCN(CC)CC4)ccc3OCC)nn12 [Vardenafil, vardenafil]",no alteration of MRP7 protein localization,75%,No significant change,without altering the levels,,,,,
"CC(=O)O[C@H]1C(=O)[C@@]2(C)[C@H]([C@H](OC(=O)c3ccccc3)[C@]3(O)C[C@H](OC(=O)[C@H](O)[C@@H](NC(=O)c4ccccc4)c4ccccc4)C(C)=C1C3(C)C)[C@]1(OC(C)=O)CO[C@@H]1C[C@@H]2O [Paclitaxel, paclitaxel]",,,,,(1.0)^c,(788.5),(1079.6),70%,107 ± 11.2 nM
